Experimental findings from patent US6852686B2, “Methods for ameliorating icthyosiform skin diseases” (The United States of America as represented by the …, priority 1999, dated 2005) are described below.

Entries after “also recorded” stand apart in the source; their conditions may differ.

Assay [1] concerns synthetic lipid vesicles (SLV). The assay is described as follows: Membrane association (binding) to synthetic lipid vesicles, SLV pelleted by ultracentrifugation. The note with it: for effect on involucrin binding to SLV when substituted for PS: SLV containing 8% PS plus 0-20% of the anionic phospholipid; for effect on Ca++-induced binding of involucrin to SLVs: added to buffer, SLVs with 15 mol % PS; for binding to SLV: SLV with 0 or 15% PS, with or without free Ca++. How it is done:
Mixtures of dipalmitoyl-phosphatidylcholine, cholesterol, dipalmitoyl-phosphatidylserine (PS) and other lipids where indicated (all from Sigma, St. Louis, Mo.) were made in chloroform-methanol (95:5). In all cases, the mixtures contained 30% cholesterol. When the amounts of PS or other individual components were varied, phosphatidylcholine was added to make the mixture to 100%. Mixtures were made in 0.5 ml and contained 10 μmol of total lipids. The solvent was flushed away under a stream of N2, dried further under high vacuum for 4 h and then resuspended by vortexing in 0.5 ml of a buffer containing 50 mM Tris-Cl (pH 8.0), 100 mM NaCl, 3 mM NaN3, 5 mM DTT, and 200 mM sucrose. The mixture was sonicated on ice five times each for 1 min using a Branson 250 sonifier with micro probe tip, and allowed to stand at 23° C. to facilitate assembly of SLV. After 1 h the SLV were diluted with 0.5 ml of the above buffer without sucrose, and 200 μl aliquots were centrifuged at 100,000× g for 30 min in a Beckman Airfuge using the A-10 rotor. The top 175 μl was removed, and the pellet resuspended in another 150 μl of sucrose-free buffer. The final stock concentration was 11 μmol/ml.
In all cases, the buffer contained 50 mM Tris-HCl (pH 8.0), 100 mM NaCl, 1 mM DTT, 3 mM NaN3, and other additives where noted. Some mixtures also contained 1 mM CaCl2 or 2 mM EDTA. After mixing, the samples were centrifuged for 45 min at 100,000× g, and the protein content from 50 μl of supernatant was determined by amino acid analysis after acid hydrolysis. Data were usually not corrected for loss of SLV lipids, as in control experiments, cumulated losses were <4% as assayed by ^14C-phosphatidylcholine tracer, and thus neglected from the calculations.
The Ca^++ concentrations in the μM range were set by buffering free Ca^++ with chelators The desired Ca^++/chelator ratios were calculated by the WinMaxC 1.7 computer program (Bers, et al., Methods in Cell Biology Vol 40: A Practical Guide to the Study of Ca^2+ in Living Cells, Nuccitelli, R., ed., pp. 1-327 (1994), herein expressly incorporated by reference in its entirety), and were made by adding the required amounts of 1 M CaCl2 to 0.2 M stock solutions of the following chelators at pH 8.0. Final chelator concentrations in the samples were 10 mM in all cases. Sodium citrate was the chelator for the 20-500 μM Ca^++ range; sodium nitrilotriacetate for the 1-20 μM Ca^++ range; and sodium 1,2-bis(aminophenoxy)ethane-N,N,N′,N′ tetraacetate for the 0.1-1 μM Ca^++ range.

Another assay has as its target T1, TGase 1 (Homo sapiens, UniProt P22735).
T1 construct: Recombinant full-length human TGase 1 and TGase 3 enzymes were expressed in Sf9 cells by the BaculoGold system; made in house; host or cells: Sf9 insect cells, BaculoGold baculovirus system, pVL1392 vector
T1 sequence (P22735 1-817): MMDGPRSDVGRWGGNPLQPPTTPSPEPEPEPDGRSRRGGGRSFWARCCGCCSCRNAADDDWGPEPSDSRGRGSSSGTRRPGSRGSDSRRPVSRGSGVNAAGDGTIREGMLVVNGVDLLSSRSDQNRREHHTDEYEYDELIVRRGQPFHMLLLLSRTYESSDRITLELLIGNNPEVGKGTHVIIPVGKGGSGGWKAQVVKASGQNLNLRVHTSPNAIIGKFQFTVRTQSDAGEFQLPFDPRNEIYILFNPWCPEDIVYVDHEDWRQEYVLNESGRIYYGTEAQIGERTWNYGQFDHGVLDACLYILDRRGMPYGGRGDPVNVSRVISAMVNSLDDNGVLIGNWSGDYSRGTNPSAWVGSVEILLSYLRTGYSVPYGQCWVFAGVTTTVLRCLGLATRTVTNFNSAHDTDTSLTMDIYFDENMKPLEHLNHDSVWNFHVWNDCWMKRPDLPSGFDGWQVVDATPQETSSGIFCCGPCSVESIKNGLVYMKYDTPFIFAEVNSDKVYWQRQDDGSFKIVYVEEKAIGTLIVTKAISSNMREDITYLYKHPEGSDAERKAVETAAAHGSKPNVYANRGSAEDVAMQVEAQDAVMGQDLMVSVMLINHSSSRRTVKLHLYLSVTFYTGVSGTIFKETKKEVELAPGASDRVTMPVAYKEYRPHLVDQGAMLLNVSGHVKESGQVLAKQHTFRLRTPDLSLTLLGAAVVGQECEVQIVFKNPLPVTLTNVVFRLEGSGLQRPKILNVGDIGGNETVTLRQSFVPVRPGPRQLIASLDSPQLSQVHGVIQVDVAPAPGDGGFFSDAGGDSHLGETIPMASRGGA
The assay is described as follows: Lipid Z esterification of involucrin by TGase 1 on SLV. The class given is biochemical. The note with it: for involucrin-lipid adduct formation by TGase 1 on SLV membranes: ceramide incorporated in SLV. As to the method: A mixture of 54 mol % dimyristoyl-phosphatidylcholine, 15 mol % dipalmitoyl-phosphatidylserine, 30 mol % cholesterol (all from Sigma, St. Louis, Mo.) and 1 mol % lipid Z was made in chloroform: methanol (9:1). This solution was dried down, taken up in aqueous buffer and dispersed by sonication as before (Nemes et al., J. Biol. Chem., 274: in press (1999)). The SLV suspension was equipped with TGase 1 enzyme by incubation at 37° C. for 15 min prior to adding substrates.
The reactions were stopped by the addition of EDTA to 10 mM.
Following reaction, 0.1 ml 20% SDS in water was added to the samples and the mixture was vortexed. This mixture was precipitated and washed three times with acetone-triethylamine-acetic acid (90:5:5) to remove the SDS and the unbound lipids (Konigsberg, W. H. and L. Henderson, Meth. Enzymol., 91: 254-259 (1983), herein expressly incorporated by reference in its entirety). After further washing with acetone the pellet was dried under vacuum and redissolved in 50 mM Tris-HCl (pH 7.5). Resolubilized protein was digested for 16 h with 2 mol % modified trypsin (Boehringer Mannheim). Peptides were resolved on a 250×2 mm PrimesphereC4 HPLC column (Phenomenex) and separated using a gradient elution from 75% buffer A (0.1% TFA in water) to 75% buffer B (50% 2-propanol in acetonitrile) in 40 min. Under these conditions, lipo-peptides were retarded but free peptides elute with the solvent front (Marekov, L. N. and P. M. Steinert, J. Biol. Chem., 273: 17763-17770 (1998), herein expressly incorporated by reference in its entirety).
Amino acid analysis of hydrolyzed samples (5.7 N HCl at 110° C. for 24 h in vacuo) was used to routinely measure amounts of lipo-peptides. Aliquots of isolated lipo-peptide peaks were attached to a solid support for sequencing (Marekov, L. N. and P. M. Steinert, J. Biol. Chem., 273: 17763-17770 (1998), herein expressly incorporated by reference in its entirety). Saponification of lipo-peptides was done with 1 N KOH in 80% methanol for 2 h at 37° C., after which the solution was acidified, dried and peptides were recovered by HPLC on a C18 column.

Turning to “phosphatidyl glycerol [reference compound]”, the “effect on involucrin binding to SLV when substituted for PS” value (“effect on involucrin binding to SLV” for short) in assay [1] was “did not enhance binding”.
With `NCCSSCCN` [cystamine], the “inhibition of lipid Z esterification” value against TGase 1 (20 mM cystamine) was “significantly reduced; also recorded: completely inhibited”.
For the molecule palmitoylsphingosine, the “involucrin-lipid adduct formation by TGase 1 on SLV membranes” value at TGase 1 is on record as “no involucrin-adduct formation was observed”.
Same read-out and setting: for 16-hydroxypalmitoylsphingosine the value was “no involucrin-adduct formation was observed”.
With “phosphatidyl inositol [reference compound]”, the “effect on involucrin binding to SLV” value in assay [1] is “did not enhance binding”.
In the case of `O=C(O)CN(CCN(CC(=O)O)CC(=O)O)CC(=O)O` [EDTA], the “effect on Ca++-induced binding of involucrin to SLVs” value in assay [1] is given as “completely reversible”. The “inhibition of lipid Z esterification” value against TGase 1 (EDTA present (5 mM elsewhere in the source)) was “no lipo-peptides were recovered; also recorded: completely inhibited”.
Regarding `CCCCCCO` [1-hexanol], at TGase 1 (up to 2% 1-hexanol), the “inhibition of formation of lipid Z ester” value is recorded as “did not significantly (p=0.05) inhibit”.
`NCCCCN` [Putrescine, putrescine]: on TGase 1 (1 mM putrescine included in the reaction), the “inhibition of ester formation of each reactive Gln residue” value is on record as 2-3 fold. Moreover, the “reduction in ester yields” value on TGase 1 (20 mM putrescine added at 45 min, compared to 1 h levels) is “significantly (p<0.01) reduced; also recorded: about a two-fold and time dependent reduction”.
As to phosphatidic acid [reference compound], the “effect on involucrin binding to SLV” value in assay [1] is listed as “did not enhance binding”.
Turning to `[Mg+2]` [magnesium], the “effect on Ca++-induced binding of involucrin to SLVs” value in assay [1] is “did not support the binding”.
The same measure, in the same setting: for `O=C(O)CN(CCOCCOCCN(CC(=O)O)CC(=O)O)CC(=O)O` [EGTA, reference compound] the value was “completely reversible”.

B1: loricrin: recombinant human CE protein (protein, UniProt P23490 1-312, looked up)
Loricrin: MSYQKKQPTPQPPVDCVKTSGGGGGGGGSGGGGCGFFGGGGSGGGSSGSGCGYSGGGGYSGGGCGGGSSGGGGGGGIGGCGGGSGGSVKYSGGGGSSGGGSGCFSSGGGGSGCFSSGGGGSSGGGSGCFSSGGGGSSGGGSGCFSSGGGGFSGQAVQCQSYGGVSSGGSSGGGSGCFSSGGGGGSVCGYSGGGSGCGGGSSGGSGSGYVSSQQVTQTSCAPQPSYGGGSSGGGGSGGSGCFSSGGGGGSSGCGGGSSGIGSGCIISGGGSVCGGGSSGGGGGGSSVGGSGSGKGVPICHQTQQKQAPTWPSK
With B1, in assay [1], the “binding to SLV” value was “unable to directly attach to SLV”.

B2: TGase 3: recombinant full-length human TGase 3, activated with dispase (protein, UniProt Q08188 1-693, looked up)
chain: MAALGVQSINWQTAFNRQAHHTDKFSSQELILRRGQNFQVLMIMNKGLGSNERLEFIVSTGPYPSESAMTKAVFPLSNGSSGGWSAVLQASNGNTLTISISSPASAPIGRYTMALQIFSQGGISSVKLGTFILLFNPWLNVDSVFMGNHAEREEYVQEDAGIIFVGSTNRIGMIGWNFGQFEEDILSICLSILDRSLNFRRDAATDVASRNDPKYVGRVLSAMINSNDDNGVLAGNWSGTYTGGRDPRSWNGSVEILKNWKKSGFSPVRYGQCWVFAGTLNTALRSLGIPSRVITNFNSAHDTDRNLSVDVYYDPMGNPLDKGSDSVWNFHVWNEGWFVRSDLGPSYGGWQVLDATPQERSQGVFQCGPASVIGVREGDVQLNFDMPFIFAEVNADRITWLYDNTTGKQWKNSVNSHTIGRYISTKAVGSNARMDVTDKYKYPEGSDQERQVFQKALGKLKPNTPFAATSSMGLETEEQEPSIIGKLKVAGMLAVGKEVNLVLLLKNLSRDTKTVTVNMTAWTIIYNGTLVHEVWKDSATMSLDPEEEAEHPIKISYAQYEKYLKSDNMIRITAVCKVPDESEVVVERDIILDNPTLTLEVLNEARVRKPVNVQMLFSNPLDEPVRDCVLMVEGSGLLLGNLKIDVPTLGPKEGSRVRFDILPSRSGTKQLLADFSCNKFPAIKAMLSIDVAE
modifications: full-length activated by dispase cleavage
Regarding B2, in assay [1], the “binding to SLV” value is listed as “unable to associate with an SLV of any composition tested”.
